Calls of active or inactive are those of the source. No cut-off for these calls is given here.

The nature of series [1]: Induction of singlet oxygen generation in toluene solution assessed as singlet oxygen quantum yield irradiated with 369 nanometer LED light at 300 mW by spectrometric method. It counts as functional.
Series [2] can be described thus: Induction of hydroxy radical generation in pluronic solution irradiated with 635 nanometer LED light at 6 mW by HPF fluorescence method.
A short description of series [3]: Absorption property in pluronic/PBS solution assessed as diode array corresponding wavelength of photodynamic inactivation by measuring electronic absorption spectra by spectrophotometry. It counts as physicochemical. The note with it: buffer.
Series [4] relates to Enterococcus faecalis. The series is described as follows: Photodynamic antibacterial activity against Enterococcus faecalis 29212 assessed as bacterial eradication at 7 uM preincubated for 30 mins in dark condition followed by 72 J/cm2 LED light irradiation. It counts as functional.
Series [5] can be described thus: Induction of […] generation in pluronic solution irradiated with 369 nanometer LED light at 6 mW by HPF fluorescence method.
In series [6] the test system is Enterococcus faecalis. The experiment in a line: Photodynamic antibacterial activity against Enterococcus faecalis 29212 assessed as bacterial eradication by measuring log reduction at 7 uM preincubated for 30 mins in dark condition followed by 0.6 J/cm2.min LED light irradiation for 120 mins. It counts as functional.
The nature of series [7]: Induction of singlet oxygen generation in pluronic solution in deuterated water assessed as singlet oxygen quantum yield irradiated with 635 nanometer LED light at 300 mW by spectrometric method. It counts as functional.
For a further series, the system named is HeLa. The experiment in a line: Photodynamic anticancer activity against human HeLa cells. It counts as functional, cell-based.
Series [8] concerns Enterococcus faecalis. The series is described as follows: Photodynamic antibacterial activity against Enterococcus faecalis 29212 assessed as bacterial eradication at 7 uM preincubated for 30 mins in dark condition followed by 0.6 J/cm2.min LED light irradiation for 50 mins. The note with it: time 80 min, 1.333 h. It counts as functional, ATCC 29212.
The test system of series [9] is Enterococcus faecalis. The experiment in a line: Photodynamic antibacterial activity against Enterococcus faecalis 29212 assessed as bacterial eradication at 7 uM preincubated for 30 mins in dark condition followed by 30 J/cm2 LED light irradiation. It counts as functional, ATCC 29212. The following applies: 0.5 h.

As for `CC(C)(C)C1=Cc2nc1ccc1ccc([nH]1)c1nc(ccc3[nH]c2cc3C(C)(C)C)C=C1`, the Activity in series [1] is 0.36; in [3], “Active”; in series [7], 0.22. Moreover, the result in [2] and in series [5] was Active. Besides, the Activity result in the series on Enterococcus faecalis [4] (ATCC 29212) is “inactive”; in the series with Enterococcus faecalis [6] (ATCC 29212, time 150.0 min), “inactive”.
Consider `COCCC1=Cc2nc1ccc1[nH]c(cc1CCOC)c1nc(ccc3[nH]c2cc3CCOC)C(CCOC)=C1`, for which the Activity was 0.32 in series [1]; “Active” in series [3]; 100% in the series with Enterococcus faecalis [4] (0.5 h); 6 in the series with Enterococcus faecalis [6] (time 150 min, 2.5 h); 0.23 in [7]. Moreover, the result (in series [2]; in series [5]; in the series with HeLa) was Active.
Turning to `C1=Cc2nc1ccc1ccc([nH]1)c1nc(ccc3ccc2[nH]3)C=C1`, the Activity in series [1] is 0.3; in [3], “Active”; in the series with Enterococcus faecalis [8], 100%; in the series on Enterococcus faecalis [9] it was 100%; in series [7], 0.28. Moreover, the result (in [2]; in series [5]; in the series with HeLa) was Active.
As for `CC(C)(C)c1cc2[nH]c1ccc1nc(c3ccc(ccc4nc2C=C4)[nH]3)C=C1`, the Activity in [1] is 0.32; in series [3], “Active”; in the series on Enterococcus faecalis [6] (time 150 min, 2.5 h), 3; in [7], 0.23. For the same molecule, the result in series [2] and in series [5] was Active. The outcome in the series on Enterococcus faecalis [4] (ATCC 29212) was inactive.
For the molecule `CC(C)(C)C1=Cc2nc1ccc1[nH]c(cc1C(C)(C)C)c1nc(ccc3[nH]c2cc3C(C)(C)C)C(C(C)(C)C)=C1`, the Activity was 0.38 in [1], “Active” in series [3] and 0.21 in series [7]. Also, the outcome in series [2] and in series [5] was Active. Also, the Activity result with Enterococcus faecalis [4] (ATCC 29212) is “inactive”; with HeLa it was “inactive”; in the series on Enterococcus faecalis [6] (ATCC 29212, time 150.0 min) it was “inactive”.

The values are drawn from ChEMBL document CHEMBL4765351, “Photoeradication of bacteria with porphycenes: Substituent effects on the efficiency” (Eur J Med Chem, 2020).
